Results published in paper PMC11855866 (International Journal of Molecular Sciences, 2025).
In brackets after ≈: the same amount, converted by molar mass. Where two headings read alike, the source gives them in different places.

Experiments:
4T1 tumors = assay: 4T1 breast cancer in BALB/c mice; assay type: in vivo; details: GLIM alone 4 mg/kg i.p.
Experimental: Six- to eight-week-old female BALB/c mice (Charles River Breeding Laboratories, Wilmington, MA, USA) were bred at the Maria Sklodowska-Curie National Research Institute of Oncology, Gliwice Branch (Gliwice, Poland), under a HEPA-filtered Allentown's IVC System (Allentown Caging Equipment Co., Allentown, NJ, USA). All efforts to minimize animal suffering were made by qualified personnel. This study was carried out in strict accordance with the recommendations in the Guide for the Care and Use of Laboratory Animals of the National Institutes of Health. The protocols were approved by the Committee on the Ethics of Animal Experiments of the Local Ethics Commission (Medical University of […], Poland; Permit No. 22/2024). BALB/c mice were injected subcutaneously in the lower flank with 2 × 10^5 4T1 cells suspended in 100 μL PBS. […] Each treatment was administered a total of five times.

[1] = set-up: method as in Figure S2 [39–71]; details: ref Figure S2 [39–71]; cited from earlier work
[2] = MTT cytotoxicity, range over the cell panel; assay type: cell-based; details: human; range over the tested cell lines; read-out: cytotoxicity (IC50 range over cell lines), our study
Experimental: HMEC-1, an immortalized human microvascular endothelial cell line, was used as a model for normal cells.
(§1) The cancer cell lines were cultured in Dulbecco’s Modified Eagle’s Medium (DMEM; Sigma-Aldrich) supplemented with 10% FBS and 1% penicillin/streptomycin mixture (10,000 U/mL penicillin and 10 mg/mL streptomycin; Sigma-Aldrich) at 37 °C in a humidified atmosphere with 5% CO2.
(§2) For the MTT assay, exponentially growing cells were seeded into 96-well plates at a density of 5 × 10³ cells per well. After 24 h of incubation, the medium was replaced with 100 µL of fresh medium containing the tested compounds. After 72 h of treatment, cell viability was assessed using the MTT assay as described earlier. […] IC50 values were calculated using GraphPad Prism 9 software (GraphPad Software).

[3] = system: 4T1 breast cancer and B16F10 melanoma xenografts; details: 4T1, B16F10 xenografts, MMTV-PyMT; cited from earlier work
[4] = DLS particle size measurements; assay type: physicochemical
Experimental: Dynamic light scattering (DLS) measurements were performed using a Zetasizer Nano ZS instrument (Malvern Instruments, Malvern, UK). Samples of 2 mL were placed in disposable PMMA cuvettes (cat. #634-0677; VWR, Gdańsk, Poland) and measured at 37 °C. To ensure accuracy, each sample was measured at least three times. The data were processed using DTS v6.2 software (Malvern Instruments).

U-87MG cells = assay: MTT cytotoxicity / synergy assay, 72 h, U-87MG; assay type: cell-based; details: Homo sapiens, n.d. = IC50 not achieved within concentrations tested, read-out: IC50 Value in Specific Cell Line, U-87MG
Experimental: The synergistic effects of drug combinations were studied in various cancer cell lines, including MCF-7 (human breast cancer), A549 (human lung cancer), U-87 MG (human malignant glioma), HepG2 (human liver cancer), and HUH7 (human liver cancer). HMEC-1, an immortalized human microvascular endothelial cell line, was used as a model for normal cells. All cell lines were purchased from ATCC (Rockville, MD, USA).
as §1, §2

[5] = cited from earlier work
MC38 model = system: MC38 model; set-up: method as in PMID 36033393; details: GLIM 5 mg/kg every 2 days, i.p.; cited from earlier work
MC38 melanoma model = system: MC38 melanoma model; set-up: method as in PMID 36033393; details: GLIM 5 mg/kg every 2 days, i.p.; cited from earlier work
MCF-7 cells = details: cited from earlier work

d¯I of drug aggregates ([4]; PBS pH 7.4, 37 °C, […] BSA, GLIM beyond 200 µM): approx. 353 nm
diameter of aggregates ([4]; absence of BSA, buffers and culture media): over 300 nm
SMILES: CCC1=C(C)CN(C(=O)NCCc2ccc(S(=O)(=O)NC(=O)N[C@H]3CC[C@H](C)CC3)cc2)C1=O [GLIM, Glimepiride]
body weight compared to controls (4T1 tumors): no significant change in body weight
tumor size compared to untreated controls (4T1 tumors): no reduction in tumor size
solubility [1]: 12.2 µM (≈ 5.99 µg/mL)
IC50 at 72 h [2]: 135 to 473 µM
effect on tumor growth and metastasis [3]: no effect
IC50 (U-87MG cells): 186 µM
logP [5]: 3.81
increase in CD8+ T cell numbers (MC38 model): < 10%
reduction of tumor mass (MC38 melanoma model): 57%
IC50 (MCF-7 cells; calculated by the authors from the results of Faridi et al., read-out: IC50 value, MCF-7): 79.8 µM
IC50 (MCF-7 cells; read-out: IC50, MCF-7): 50 µM
